Experiments:
Assay type in all cases: in vivo
[1] = tested on: barnyardgrass (Echinochloa crus-galli); test: Test A preemergence, directed soil spray, visual injury rating; conditions: approx. 10 d, 0 = no effect, 100 = complete control
Text: (§1) Seeds of plant species selected from barnyardgrass (Echinochloa crus-galli), kochia (Kochia scoparia), ragweed (common ragweed, Ambrosia elation), ryegrass, Italian (Italian ryegrass, Lolium multiflorum), foxtail, giant (giant foxtail, Setaria faberii), and pigweed (Amaranthus retroflexus), were planted into a blend of loam soil and sand and treated preemergence with a directed soil spray using test chemicals formulated in a non-phytotoxic solvent mixture which included a surfactant. At the same time, plants selected from these weed species and also blackgrass (Alopecurus myosuroides), galium (catchweed bedstraw, Galium aparine), wheat (Triticum aestivum), and corn (Zea mays) were planted in pots containing the same blend of loam soil and sand and treated with postemergence applications of test chemicals formulated in the same manner. Plants ranged in height from 2 to 10 cm and were in the one- to two-leaf stage for the postemergence treatment. Treated plants and untreated controls were maintained in a greenhouse for approximately 10 d, after which time all treated plants were compared to untreated controls and visually evaluated for injury. Plant response ratings, summarized in Table A, are based on a 0 to 100 scale where 0 is no effect and 100 is complete control. A dash (-) response means no test result.

[2] = tested on: foxtail, giant (giant foxtail, Setaria faberii); test: as above; conditions: approx. 10 d, 0 = no effect, 100 = complete control
Text: as §1

kochia (Kochia scoparia) [3] = test: as above; conditions: approx. 10 d, 0 = no effect, 100 = complete control
Text: as §1

[4] = tested on: pigweed (Amaranthus retroflexus); test: as above; conditions: approx. 10 d, 0 = no effect, 100 = complete control
Text: as §1

[5] = tested on: ragweed (common ragweed, Ambrosia elation); test: as above; conditions: approx. 10 d, 0 = no effect, 100 = complete control
Text: as §1

[6] = tested on: ryegrass, Italian (Italian ryegrass, Lolium multiflorum); test: as above; conditions: approx. 10 d, 0 = no effect, 100 = complete control
Text: as §1

[7] = tested on: barnyardgrass (Echinochloa crus-galli); test: Test A postemergence application, visual injury rating; conditions: approx. 10 d, 0 = no effect, 100 = complete control
Text: as §1

[8] = tested on: blackgrass (Alopecurus myosuroides); test: as above; conditions: approx. 10 d, 0 = no effect, 100 = complete control
Text: as §1

corn (Zea mays) = test: as above; conditions: approx. 10 d, 0 = no effect, 100 = complete control
Text: as §1

[9] = tested on: foxtail, giant (giant foxtail, Setaria faberii); test: as above; conditions: approx. 10 d, 0 = no effect, 100 = complete control
Text: as §1

[10] = tested on: galium (catchweed bedstraw, Galium aparine); test: as above; conditions: approx. 10 d, 0 = no effect, 100 = complete control
Text: as §1

kochia (Kochia scoparia) [11] = test: as above; conditions: approx. 10 d, 0 = no effect, 100 = complete control
Text: as §1

[12] = tested on: pigweed (Amaranthus retroflexus); test: as above; conditions: approx. 10 d, 0 = no effect, 100 = complete control
Text: as §1

[13] = tested on: ragweed (common ragweed, Ambrosia elation); test: as above; conditions: approx. 10 d, 0 = no effect, 100 = complete control
Text: as §1

[14] = tested on: ryegrass, Italian (Italian ryegrass, Lolium multiflorum); test: as above; conditions: approx. 10 d, 0 = no effect, 100 = complete control
Text: as §1

[15] = tested on: wheat (Triticum aestivum); test: as above; conditions: approx. 10 d, 0 = no effect, 100 = complete control
Text: as §1

[16] = tested on: barnyardgrass (Echinochloa crus-galli); test: Test B flooded paddy test, visual plant response rating; conditions: 250 g ai/ha; applied to paddy water at 2-leaf stage; rated after 13 to 15 days; scale 0 to 100, 0 is no effect, 100 is complete control
Text: (§2) At time of treatment, test pots were flooded to 3 cm above the soil surface, treated by application of test compounds directly to the paddy water, and then maintained at that water depth for the duration of the test. Treated plants and controls were maintained in a greenhouse for 13 to 15 days, after which time all species were compared to controls and visually evaluated. Plant response ratings, summarized in Table B, are based on a scale of 0 to 100 where 0 is no effect and 100 is complete control. A dash (-) response means no test result.

[17] = tested on: ducksalad (Heteranthera limosa); test: as above; conditions: 250 g ai/ha; applied to paddy water at 2-leaf stage; rated after 13 to 15 days; scale 0 to 100, 0 is no effect, 100 is complete control
Text: as §2

rice (Oryza sativa) = test: as above; conditions: 250 g ai/ha; applied to paddy water at 2-leaf stage; rated after 13 to 15 days; scale 0 to 100, 0 is no effect, 100 is complete control
Text: as §2

[18] = tested on: sedge, umbrella (small-flower umbrella sedge, Cyperus difformis); test: as above; conditions: 250 g ai/ha; applied to paddy water at 2-leaf stage; rated after 13 to 15 days; scale 0 to 100, 0 is no effect, 100 is complete control
Text: as §2

O=C(Nc1cccc(F)c1F)C1c2nncn2CC1c1ccc(Cl)cc1 (stereo not drawn) [Compound 7]
30: Barnyardgrass plant response rating (0 to 100 scale) ([1]; 125 g ai/ha) | Corn plant response rating (0 to 100 scale) (corn (Zea mays); 500 g ai/ha)
0: Kochia plant response rating (0 to 100 scale) (kochia (Kochia scoparia) [3]; 125 g ai/ha) | Pigweed plant response rating (0 to 100 scale) ([4]; 125 g ai/ha) | Ragweed plant response rating (0 to 100 scale) ([5]; 125 g ai/ha) | Ryegrass, Italian plant response rating (0 to 100 scale) ([6]; 125 g ai/ha) | Ryegrass, Italian plant response rating (0 to 100 scale) ([6]; 500 g ai/ha) | Blackgrass plant response rating (0 to 100 scale) ([8]; 125 g ai/ha) | Blackgrass plant response rating (0 to 100 scale) ([8]; 500 g ai/ha) | Kochia plant response rating (0 to 100 scale) (kochia (Kochia scoparia) [11]; 125 g ai/ha) | Pigweed plant response rating (0 to 100 scale) ([12]; 125 g ai/ha) | Ragweed plant response rating (0 to 100 scale) ([13]; 125 g ai/ha) | Ryegrass, Italian plant response rating (0 to 100 scale) ([14]; 125 g ai/ha) | Wheat plant response rating (0 to 100 scale) ([15]; 125 g ai/ha) | Plant response rating, Flood, Barnyardgrass [16] | Plant response rating, Flood, Sedge, Umbrella [18]
20: Pigweed plant response rating (0 to 100 scale) ([4]; 500 g ai/ha) | Barnyardgrass plant response rating (0 to 100 scale) ([7]; 125 g ai/ha) | Corn plant response rating (0 to 100 scale) (corn (Zea mays); 125 g ai/ha) | Foxtail, Giant plant response rating (0 to 100 scale) ([9]; 125 g ai/ha) | Ryegrass, Italian plant response rating (0 to 100 scale) ([14]; 500 g ai/ha) | Wheat plant response rating (0 to 100 scale) ([15]; 500 g ai/ha)
40: Foxtail, Giant plant response rating (0 to 100 scale) ([2]; 125 g ai/ha) | Kochia plant response rating (0 to 100 scale) (kochia (Kochia scoparia) [3]; 500 g ai/ha) | Galium plant response rating (0 to 100 scale) ([10]; 125 g ai/ha) | Kochia plant response rating (0 to 100 scale) (kochia (Kochia scoparia) [11]; 500 g ai/ha)
50: Ragweed plant response rating (0 to 100 scale) ([5]; 500 g ai/ha) | Galium plant response rating (0 to 100 scale) ([10]; 500 g ai/ha) | Pigweed plant response rating (0 to 100 scale) ([12]; 500 g ai/ha) | Plant response rating, Flood, Ducksalad [17]
15: Plant response rating, Flood, Rice (rice (Oryza sativa))
80: Foxtail, Giant plant response rating (0 to 100 scale) ([2]; 500 g ai/ha)
60: Ragweed plant response rating (0 to 100 scale) ([13]; 500 g ai/ha)
70: Barnyardgrass plant response rating (0 to 100 scale) ([1]; 500 g ai/ha) | Barnyardgrass plant response rating (0 to 100 scale) ([7]; 500 g ai/ha) | Foxtail, Giant plant response rating (0 to 100 scale) ([9]; 500 g ai/ha)

CCc1ccc(C2Cn3cnnc3C2C(=O)Nc2ccccc2SC)cc1 (stereo not drawn) [Compound 25]
40: Barnyardgrass plant response rating (0 to 100 scale) ([1]; 500 g ai/ha) | Foxtail, Giant plant response rating (0 to 100 scale) ([2]; 500 g ai/ha)
0: Barnyardgrass plant response rating (0 to 100 scale) ([1]; 125 g ai/ha) | Foxtail, Giant plant response rating (0 to 100 scale) ([2]; 125 g ai/ha) | Kochia plant response rating (0 to 100 scale) (kochia (Kochia scoparia) [3]; 125 g ai/ha) | Pigweed plant response rating (0 to 100 scale) ([4]; 125 g ai/ha) | Pigweed plant response rating (0 to 100 scale) ([4]; 500 g ai/ha) | Ragweed plant response rating (0 to 100 scale) ([5]; 125 g ai/ha) | Ragweed plant response rating (0 to 100 scale) ([5]; 500 g ai/ha) | Ryegrass, Italian plant response rating (0 to 100 scale) ([6]; 125 g ai/ha) | Ryegrass, Italian plant response rating (0 to 100 scale) ([6]; 500 g ai/ha) | Blackgrass plant response rating (0 to 100 scale) ([8]; 125 g ai/ha) | Blackgrass plant response rating (0 to 100 scale) ([8]; 500 g ai/ha) | Corn plant response rating (0 to 100 scale) (corn (Zea mays); 125 g ai/ha) | Corn plant response rating (0 to 100 scale) (corn (Zea mays); 500 g ai/ha) | Foxtail, Giant plant response rating (0 to 100 scale) ([9]; 125 g ai/ha) | Galium plant response rating (0 to 100 scale) ([10]; 125 g ai/ha) | Galium plant response rating (0 to 100 scale) ([10]; 500 g ai/ha) | Pigweed plant response rating (0 to 100 scale) ([12]; 125 g ai/ha) | Pigweed plant response rating (0 to 100 scale) ([12]; 500 g ai/ha) | Ragweed plant response rating (0 to 100 scale) ([13]; 125 g ai/ha) | Ragweed plant response rating (0 to 100 scale) ([13]; 500 g ai/ha) | Ryegrass, Italian plant response rating (0 to 100 scale) ([14]; 125 g ai/ha) | Ryegrass, Italian plant response rating (0 to 100 scale) ([14]; 500 g ai/ha) | Wheat plant response rating (0 to 100 scale) ([15]; 125 g ai/ha) | Wheat plant response rating (0 to 100 scale) ([15]; 500 g ai/ha) | Plant response rating, Flood, Barnyardgrass [16] | Plant response rating, Flood, Rice (rice (Oryza sativa)) | Plant response rating, Flood, Sedge, Umbrella [18]
65: Plant response rating, Flood, Ducksalad [17]
20: Kochia plant response rating (0 to 100 scale) (kochia (Kochia scoparia) [3]; 500 g ai/ha) | Barnyardgrass plant response rating (0 to 100 scale) ([7]; 125 g ai/ha)
30: Barnyardgrass plant response rating (0 to 100 scale) ([7]; 500 g ai/ha) | Foxtail, Giant plant response rating (0 to 100 scale) ([9]; 500 g ai/ha) | Kochia plant response rating (0 to 100 scale) (kochia (Kochia scoparia) [11]; 125 g ai/ha) | Kochia plant response rating (0 to 100 scale) (kochia (Kochia scoparia) [11]; 500 g ai/ha)

Source: US10442807B2, “Aryl substituted bicyclic compounds as herbicides” (FMC Corporation, priority 2015, dated 2019)
